Assay results: PMC8744835, “Sterically Hindered Quaternary Phosphonium Salts (QPSs): Antimicrobial Activity and Hemolytic and Cytotoxic Properties” (International Journal of Molecular Sciences, 2021)

Tests used:
Chang liver cell line = experiment: Cytotoxicity assay (Cytell Cell Imaging, DAPI/propidium iodide); type: cell-based, human; conditions: for IC50: Homo sapiens, Chang liver, read-out: IC50 (concentration that causes the death of 50% of the cells), Chang liver cells; for IC50 (concentration that causes the death of 50% of the cells): Chang liver cells
human erythrocytes = experiment: Hemolytic activity; type: cell-based; conditions: red blood cells
Text: An important characteristic when assessing the biological activity of new chemical compounds is their cytotoxic effect on eukaryotic cells. The ability of an investigated compound to cause the destruction of human erythrocytes illustrates its toxic effect on the internal environment. The hemolysis assay is a simple screening test that can help in the study of cytotoxicity in more complex models. Cell lines obtained from various human organs and tissues that allow for adequate estimation of the effects of new potential drugs on cell metabolism can serve as experimental models.
The hemolytic activity of the QPSs was estimated by comparing the optical density of a solution containing the test compound with that of blood at 100% hemolysis. The experiments were carried out as previously described.

[1] = system: Staphylococcus aureus ATCC 6538P FDA 209P; experiment: Antimicrobial activity, serial dilution technique in Mueller–Hinton Broth 2; type: cell-based; conditions: average of three ± SD, - means non-active; for MIC / MBC: Staphylococcus aureus, Sa; for MIC: read-out: Minimum Inhibitory Concentration (MIC), Sa; for MBC: read-out: Minimum Bactericidal and Fungicidal Concentration (MBC, MFC), Sa
How it was run: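 Using a broth serial dilution method in Mueller–Hinton Broth 2, S. aureus ATCC 6538P FDA 209P (3.0 × 10^5 cfu/mL) was exposed to compounds at 37 °C and observed daily over 5 days. MIC was the lowest concentration preventing growth; bacteriostatic absence of growth was also noted, with three replicate experiments.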

[2] = system: methicillin-resistant S. aureus MRSA-1; experiment: as above; type: cell-based, Staphylococcus aureus; conditions: - means non-active
How it was run: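 Antimicrobial activity against methicillin-susceptible Staphylococcus aureus MRSA-1, a hospital isolate from a chronic tonsillitis patient that is resistant to fluoroquinolones and beta-lactams, was determined by serial dilution in Mueller–Hinton Broth 2. The bacterial load was 3.0 × 10^5 cfu/mL, incubation was at 37 °C, and growth was recorded every 24 h for 5 days.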

[3] = system: methicillin-resistant S. aureus MRSA-2; experiment: as above; type: cell-based, Staphylococcus aureus; conditions: - means non-active; for Minimum Inhibitory Concentration (MIC), MRSA-2: MRSA-2 (resistant to beta-lactams)
How it was run: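 Antimicrobial activity against methicillin-susceptible Staphylococcus aureus MRSA-2, a beta-lactam-resistant clinical isolate from a sinusitis patient at the Republican Clinical Hospital (Kazan), was assessed by serial dilution in Mueller–Hinton Broth 2. The inoculum was 3.0 × 10^5 cfu/mL. Cultures were incubated at 37 °C and read every 24 h for 5 days, in three repeat experiments.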

[4] = system: Bacillus cereus ATCC 10702 NCTC 8035; experiment: as above; type: cell-based; conditions: average of three ± SD, - means non-active
How it was run: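 Compounds were serially diluted in Mueller–Hinton Broth 2 and inoculated with the Gram-positive strain Bacillus cereus ATCC 10702 NCTC 8035 at 3.0 × 10^5 cfu/mL, then incubated at 37 °C. Observations were taken every 24 h over 5 days in three repeat experiments. The MIC was the lowest concentration that stopped growth, with bacteriostatic absence of growth also noted.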

[5] = system: Escherichia coli ATCC 25922; experiment: as above; type: cell-based; conditions: average of three ± SD, - means non-active
How it was run: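 Growth inhibition is scored in Mueller–Hinton Broth 2 dilution series seeded with 3.0 × 10^5 cfu/mL and held at 37 °C for up to 5 days. Values reported are MICs, the lowest concentration without growth.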

[6] = system: Pseudomonas aeruginosa ATCC 9027; experiment: as above; type: cell-based; conditions: average of three ± SD, - means non-active
[7] = system: Enterococcus faecalis ATCC 2921; experiment: as above; type: cell-based; conditions: average of three ± SD, - means non-active
How it was run: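 Antibacterial activity against Enterococcus faecalis ATCC 2921 was assessed by serial dilution in Mueller–Hinton Broth 2 with a bacterial load of 3.0 × 10^5 cfu/mL. Cultures were incubated at 37 °C, with growth recorded every 24 h for 5 days, and the experiment was performed three times.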

[8] = system: Trichophyton mentagrophytes var. gypseum 1773; experiment: Fungicidal activity, serial dilution technique; type: cell-based; conditions: Tm; average of three ± SD; - means non-active
How it was run: (§1)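 Growth inhibition was scored every 24 h across 5 days at 37 °C in a broth serial dilution series (Mueller–Hinton Broth 2, 3.0 × 10^5 cfu/mL load). Triplicate experiments; minimum inhibitory concentration recorded.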

[9] = system: Candida albicans ATCC 10231; experiment: Fungicidal activity, serial dilution technique; type: cell-based; conditions: average of three ± SD, - means non-active
How it was run: as §1

[10] = system: Escherichia coli ATCC 25922; experiment: Antimicrobial activity, serial dilution technique in Mueller–Hinton Broth 2; type: cell-based; conditions: average of three ± SD, - means non-active; remark: listed apart in the source

CC(C)(C)[P+](C)(C(C)(C)C)C(C)(C)C [Compound 1a]
IC50 (Chang liver cell line): > 100 µg/mL | HC50 (concentration that causes 50% hemolysis of erythrocytes) (human erythrocytes): > 125 µg/mL

CC[P+](C(C)(C)C)(C(C)(C)C)C(C)(C)C [Compound 2a]
IC50 (Chang liver cell line): > 100 µg/mL | HC50 (concentration that causes 50% hemolysis of erythrocytes) (human erythrocytes): > 125 µg/mL

CCC[P+](C(C)(C)C)(C(C)(C)C)C(C)(C)C [Compound 3a]
IC50 (Chang liver cell line): > 100 µg/mL | HC50 (concentration that causes 50% hemolysis of erythrocytes) (human erythrocytes): > 125 µg/mL

CCCC[P+](C(C)(C)C)(C(C)(C)C)C(C)(C)C [Compound 4a]
IC50 (Chang liver cell line): > 100 µg/mL | HC50 (concentration that causes 50% hemolysis of erythrocytes) (human erythrocytes): > 125 µg/mL

CCCCC[P+](C(C)(C)C)(C(C)(C)C)C(C)(C)C [Compound 5b]
IC50 (Chang liver cell line): > 100 µg/mL | HC50 (concentration that causes 50% hemolysis of erythrocytes) (human erythrocytes): > 125 µg/mL

CCCCCC[P+](C(C)(C)C)(C(C)(C)C)C(C)(C)C [Compound 6a]
IC50 (Chang liver cell line): > 100 µg/mL | MIC [1]: 125 ± 11 µg/mL | HC50 (concentration that causes 50% hemolysis of erythrocytes) (human erythrocytes): > 125 µg/mL

CCCCCC[P+](C(C)(C)C)(C(C)(C)C)C(C)(C)C [Compound 6b]
IC50 (concentration that causes the death of 50% of the cells) (Chang liver cell line): > 100 µg/mL | Minimum Inhibitory Concentration (MIC), Sa [1]: 250 ± 19 µg/mL | HC50 (concentration that causes 50% hemolysis of erythrocytes) (human erythrocytes): > 125 µg/mL

CCCCCCC[P+](C(C)(C)C)(C(C)(C)C)C(C)(C)C [Compound 7b]
IC50 (concentration that causes the death of 50% of the cells) (Chang liver cell line): > 100 µg/mL | MBC [1]: 62.5 µg/mL | HC50 (concentration that causes 50% hemolysis of erythrocytes) (human erythrocytes): > 125 µg/mL

CCCCCCCCCCCCCCCCCCCC[P+](C(C)(C)C)(C(C)(C)C)C(C)(C)C [Compound 20a]
Minimum Bactericidal and Fungicidal Concentration (MBC, MFC), MRSA-1 [2]: 31.3 ± 2.7 µg/mL | MIC ([2]; Staphylococcus aureus, MRSA, MRSA-1 (resistant to fluoroquinolones and beta-lactams), read-out: Minimum Inhibitory Concentration (MIC), MRSA-1): 7.8 ± 0.6 µg/mL | Minimum Inhibitory Concentration (MIC), MRSA-2 [3]: 1.9 ± 0.1 µg/mL | MBC ([3]; Staphylococcus aureus, MRSA, MRSA-2, read-out: Minimum Bactericidal and Fungicidal Concentration (MBC, MFC), MRSA-2): 15.6 ± 1.2 µg/mL | MBC ([4]; Bacillus cereus, Bc, read-out: Minimum Bactericidal and Fungicidal Concentration (MBC, MFC), Bc): 31.3 ± 2.6 µg/mL | Minimum Inhibitory Concentration (MIC), Bc [4]: 15.6 ± 1.3 µg/mL | MIC ([5]; Escherichia coli, ATCC25922, Ec, read-out: Minimum Inhibitory Concentration (MIC), Ec): 62.5 ± 5.5 µg/mL | MBC [1]: 3.9 ± 0.2 µg/mL | MIC [1]: 3.9 ± 0.2 µg/mL | Minimum Inhibitory Concentration (MIC), Pa [6]: 31.3 ± 2.4 µg/mL | MBC ([6]; Pseudomonas aeruginosa, ATCC9027, Pa, read-out: Minimum Bactericidal and Fungicidal Concentration (MBC, MFC), Pa): 125 ± 11 µg/mL | MBC ([7]; Enterococcus faecalis, ATCC2921, Ef, read-out: Minimum Bactericidal and Fungicidal Concentration (MBC, MFC), Ef): 7.8 ± 0.6 µg/mL | MIC ([7]; Enterococcus faecalis, ATCC2921, Ef, read-out: Minimum Inhibitory Concentration (MIC), Ef): 3.9 ± 0.2 µg/mL | Minimum Bactericidal and Fungicidal Concentration (MBC, MFC), Tm [8]: 31.3 ± 2.5 µg/mL | Minimum Inhibitory Concentration (MIC), Tm [8]: 31.3 ± 2.3 µg/mL | Minimum Inhibitory Concentration (MIC), Ca ([9]; Ca): 31.3 ± 2.5 µg/mL | MBC ([9]; Candida albicans, ATCC10231, Ca, read-out: Minimum Bactericidal and Fungicidal Concentration (MBC, MFC), Ca): 62.5 ± 5.7 µg/mL | MBC ([10]; Escherichia coli, ATCC25922, Ec, read-out: Minimum Bactericidal and Fungicidal Concentration (MBC, MFC), Ec): 62.5 ± 5.5 µg/mL

CCCCCCCCCCCCCCCCCCCC[P+](C(C)(C)C)(C(C)(C)C)C(C)(C)C [Compound 20b]
Minimum Inhibitory Concentration (MIC), MRSA-1 ([2]; MRSA-1 (resistant to fluoroquinolones and beta-lactams)): 15.6 ± 1.3 µg/mL | Minimum Bactericidal and Fungicidal Concentration (MBC, MFC), MRSA-1 [2]: 15.6 ± 1.2 µg/mL | Minimum Inhibitory Concentration (MIC), MRSA-2 [3]: 7.8 ± 0.6 µg/mL | Minimum Bactericidal and Fungicidal Concentration (MBC, MFC), MRSA-2 ([3]; MRSA-2): 7.8 ± 0.7 µg/mL | Minimum Inhibitory Concentration (MIC), Bc [4]: 62.5 ± 5.5 µg/mL | Minimum Inhibitory Concentration (MIC), Ec ([5]; Ec): 62.5 ± 5.7 µg/mL | Minimum Bactericidal and Fungicidal Concentration (MBC, MFC), Sa [1]: 3.9 ± 0.3 µg/mL | Minimum Inhibitory Concentration (MIC), Sa [1]: 3.9 ± 0.2 µg/mL | Minimum Inhibitory Concentration (MIC), Pa [6]: 125 ± 11 µg/mL | Minimum Bactericidal and Fungicidal Concentration (MBC, MFC), Ef ([7]; Ef): 15.6 ± 1.3 µg/mL | Minimum Inhibitory Concentration (MIC), Ef ([7]; Ef): 7.8 ± 0.6 µg/mL | Minimum Bactericidal and Fungicidal Concentration (MBC, MFC), Tm [8]: 250 ± 18 µg/mL | Minimum Inhibitory Concentration (MIC), Tm [8]: 250 ± 18 µg/mL | Minimum Bactericidal and Fungicidal Concentration (MBC, MFC), Ca ([9]; Ca): 31.3 ± 2.1 µg/mL | Minimum Inhibitory Concentration (MIC), Ca ([9]; Ca): 15.6 ± 1.3 µg/mL | Minimum Bactericidal and Fungicidal Concentration (MBC, MFC), Ec ([10]; Ec): 62.5 ± 5.5 µg/mL
